Reference: ChEMBL document CHEMBL5104094, “Chemistry, biosynthesis and biological activity of terpenoids and meroterpenoids in bacteria and fungi isolated from different marine habitats” (Eur J Med Chem, 2021)
Values after ≈ are worked out from the molar mass of the structure shown.

system: HCT-116; assay: Cytotoxicity against human HCT-116 cells assessed as cell growth inhibition incubated for 72 hrs by CellTiter 96 Aqueous One Solution Cell Proliferation assay; format: functional, cell-based; details: HCT-116, 72 h

Structure (SMILES)	IC50
C=C1CC[C@H](Cl)C(C)(C)[C@@H]1C[C@@]12OC(C)(C)[C@H](Cl)C[C@]1(Cl)C(=O)C1=C(C2=O)C(=[N+]=[N-])C(=O)C(C)=C1O	500 nM
C=C1CC[C@H](Cl)C(C)(C)[C@@H]1C[C@@]12OC(C)(C)[C@H](Cl)C[C@@]1(Cl)C(=O)c1c(cc(O)c(C)c1O)C2=O	3000 nM

system: RAW264.7; assay: Antiinflammatory activity in LPS-stimulated mouse RAW264.7 cells assessed as inhibition of NO production incubated for 2 hrs followed by LPS stimulation measured after 48 hrs […]; format: functional, cell-based; details: not given

Structure (SMILES)	IC50
C=C1[C@@H](OC(C)=O)[C@@H]2[C@](C)(C(=O)C(O)=C3C(C)(C)C(=O)CC[C@]32C)[C@]2(C(=O)OC)C(=O)[C@@H](C)OC(=O)[C@]12C	13.4 µM
C=C1[C@@H](OC(C)=O)[C@@H]2[C@](C)(C(=O)C(O)=C3C(C)(C)C(=O)C=C[C@]32C)[C@]2(C(=O)OC)C(=O)[C@@H](C)OC(=O)[C@]12C	13.4 µM
C=C1[C@@H](OC(C)=O)[C@H]2[C@]3(C)[C@H]4CC(=O)C(C)(C)[C@]43C(=O)[C@]3(O)OC4=C(C)OC(=O)[C@@]1(C)[C@]4(C(=O)OC)[C@]23C	13.4 µM
COc1ccc2c(c1)c(CC(=O)O)c(C)n2C(=O)c1ccc(Cl)cc1 [INDOMETHACIN]	24 µM

system: HCT-116; assay: Cytotoxicity against human HCT-116 cells assessed as cell growth inhibition by MTT assay; format: functional, cell-based; details: not given

Structure (SMILES)	IC50
CC(C)=CCn1c2ccc(Br)c(=O)c-2nc2ccccc21	29 nM

system: Mycolicibacterium smegmatis; assay: Antibiofilm activity against Mycobacterium smegmatis assessed as inhibition of biofilm formation incubated for 4 days; format: functional; details: 96 h, time 4 day

Structure (SMILES)	MIC
CC(C)=C/C=C\[C@H](C)[C@H]1CC[C@]2(C)C[C@H]3[C@H](C(=O)C[C@@]3(C)O)/C(C=O)=C\C[C@@H]12	25 µg/mL (≈ 64.9 µM)

system: HL-60; assay: Inhibition of cell adhesion of human HL-60 cells to human LPS-stimulated HUVEC cells incubated for 4 hrs with HUVEC cells followed by MTT-labeled HL-60 cells addition measured after 40 mins by absorbance based microplate reader analysis; format: functional; details: not given

Structure (SMILES)	IC50
C=C(CO)[C@@]1(O)[C@@H](O)[C@@]2(C)[C@H](CCC[C@@H]2C)C[C@@H]1O	15.6 µM
C=C1COC(OC)[C@@]12C[C@H]1C[C@H](O)C[C@H](C)[C@@]1(C)C2 (some centres undefined)	11.5 µM
C=C(CO)[C@]1(O)[C@@H](O)[C@@]2(C)[C@H](CCC[C@@H]2C)C[C@@H]1O	20.7 µM

target: Platelet-activating factor receptor (Homo sapiens, UniProt P25105); assay: Antagonist activity at PAFR (unknown origin); format: functional; details: not given
Sequence (P25105 whole entry): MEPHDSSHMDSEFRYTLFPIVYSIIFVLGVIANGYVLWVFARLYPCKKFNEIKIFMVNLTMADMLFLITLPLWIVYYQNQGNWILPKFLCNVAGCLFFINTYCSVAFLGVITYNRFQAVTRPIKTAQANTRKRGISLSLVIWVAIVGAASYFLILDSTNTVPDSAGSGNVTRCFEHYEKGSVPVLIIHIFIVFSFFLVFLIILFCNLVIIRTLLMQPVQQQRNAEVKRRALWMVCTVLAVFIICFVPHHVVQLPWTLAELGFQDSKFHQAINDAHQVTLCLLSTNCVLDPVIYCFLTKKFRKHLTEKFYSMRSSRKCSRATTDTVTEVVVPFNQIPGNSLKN

Structure (SMILES)	IC50
C/C1=C\CC[C@]2(C)O[C@@H]3C[C@@H](C)[C@@](C)(CC1)C1=C3[C@](O)(OC1)[C@H]2O	2800 nM
C[C@@H]1[C@@H](O)C=C2C(=O)[C@H]3O[C@@]3(C)CCC[C@H]3O[C@@]3(C)C[C@]1(C)[C@@]2(C)O	2800 nM
C/C1=C\CC[C@@H]2O[C@H]2C(=O)C2=CC[C@@H](C)[C@@](C)(C[C@@H]1O)[C@@H]2C	2800 nM
C[C@@H]1CC=C2C(=O)[C@H]3O[C@]3(C)CC[C@@H]3O[C@@]3(C)CC[C@@]1(C)[C@@]2(C)O	2800 nM
C=C1C2=CC[C@@H](C)[C@@]1(C)CC/C(C)=C/CC[C@H]1O[C@@H]1C2=O	2500 nM
C=C1C2=CC[C@@H](C)[C@]1(C)CC[C@]1(C)O[C@H]1CC[C@@]1(C)O[C@@H]1C2=O	2800 nM
C[C@@H]1CC=C2C(=O)[C@H]3O[C@]3(C)CC[C@@H]3O[C@@]3(C)CC[C@@]1(C)[C@@H]2C	2800 nM

system: HCT-116; assay: Cytotoxicity against human HCT-116 cells assessed as cell growth inhibition; format: functional, cell-based; details: not given

Structure (SMILES)	IC50
C=C[C@]1(C)C=C2C(=O)C(O)=C3C(C)(C)CC[C@@H](O)[C@]3(C)[C@@]2(O)CC1	15 µM
C=C[C@]1(C)C=C2C(=O)C(O)=C3[C@](C)(CO)CC[C@@H](O)[C@]3(C)[C@@]2(O)CC1	53 µM
COC(=O)c1c(C)cc2c(c(C)c1=O)O[C@@]1(C)CC[C@H]3C(C)(C)OC(=O)C=C[C@]3(C)[C@@H]1C2	13.9 µM
COC(=O)c1c(C)cc2c(c(C)c1=O)O[C@@]1(C)CC[C@H]3C(C)(C)OC(=O)C[C@@H](O)[C@]3(C)[C@@H]1C2	13.2 µM
COC(=O)c1c(C)cc2c(c(C)c1=O)O[C@@]1(C)CC[C@H]3C(C)(C)OC(=O)C[C@@H](OC(C)=O)[C@]3(C)[C@@H]1C2	10.9 µM
C=C[C@]1(C)C=C2C(=O)C(O)=C3[C@](C)(CO)CC=C[C@]3(C)[C@@]2(O)CC1	15 µM

target: Tyrosine-protein phosphatase non-receptor type 6 (Homo sapiens, UniProt P29350); assay: Inhibition of recombinant human SHP1 expressed in Escherichia coli using pnitrophenyl phosphate as substrate preincubated for 15 mins followed by substrate addition measured after 60 mins by absorbance based assay; details: not given
Sequence (P29350 whole entry): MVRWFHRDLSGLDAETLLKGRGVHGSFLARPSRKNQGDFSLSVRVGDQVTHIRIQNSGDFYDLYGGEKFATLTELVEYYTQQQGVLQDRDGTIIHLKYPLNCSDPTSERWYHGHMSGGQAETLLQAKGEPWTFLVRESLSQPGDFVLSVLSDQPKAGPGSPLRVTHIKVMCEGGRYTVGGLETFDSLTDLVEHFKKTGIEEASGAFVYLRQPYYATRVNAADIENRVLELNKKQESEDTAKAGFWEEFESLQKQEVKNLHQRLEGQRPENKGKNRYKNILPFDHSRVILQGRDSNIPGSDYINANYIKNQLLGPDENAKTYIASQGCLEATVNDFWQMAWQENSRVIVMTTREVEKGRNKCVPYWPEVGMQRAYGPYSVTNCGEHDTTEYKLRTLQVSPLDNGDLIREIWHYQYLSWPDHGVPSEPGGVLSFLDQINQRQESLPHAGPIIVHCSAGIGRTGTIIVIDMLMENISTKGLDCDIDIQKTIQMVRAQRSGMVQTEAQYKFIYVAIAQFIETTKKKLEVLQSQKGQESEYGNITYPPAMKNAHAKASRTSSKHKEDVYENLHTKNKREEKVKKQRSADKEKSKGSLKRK

Structure (SMILES)	IC50
COC(=O)[C@]12[C@](C)(C(=O)[C@@]1(C)O)C(C)=C[C@H]1[C@]34CC[C@H](OC(C)=O)C(C)(C)[C@H]3[C@H](C[C@@]12C)OC4=O	23 µM
COC(=O)[C@@]12C(=O)[C@@](C)(O)[C@]1(C)C(C)=C[C@H]1[C@]34CC[C@H](OC(C)=O)C(C)(C)[C@H]3[C@H](C[C@@]12C)OC4=O	34 µM
COC(=O)[C@@]12C(=O)[C@](C)(O)C(=O)[C@@H](C(C)=C1C)C1[C@]2(C)C[C@@H]2OC(=O)[C@]13CC[C@H](OC(C)=O)C(C)(C)[C@@H]23 (some centres undefined)	22 µM

system: not listed separately; assay: Inhibition of Influenza virus neuraminidase; parameters: species or system unidentified influenza virus; details: not given

Structure (SMILES)	IC50
C=C1[C@]23C(=O)O[C@@H](C)[C@@]2(O)C(=O)O[C@@]1(C)[C@H](O)C1=C(C)[C@@]2(C=CC(=O)OC2(C)C)CC[C@]13C	1370 nM
C=C1[C@]23C(=O)O[C@@H](C)[C@@]2(O)C(=O)O[C@@]1(C)[C@H](OC(C)=O)C1=C(C)[C@@]2(C=CC(=O)OC2(C)C)CC[C@]13C	1370 nM
C=C1[C@@]2(CCC(=O)OC2(C)C)C[C@H](OC(=O)/C(C)=C/C)[C@@]2(C)[C@]34C(=C)[C@@]5(C)OC(=O)[C@@]3(O[C@@]12[C@H]5OC(C)=O)[C@H](C)OC4=O	1370 nM
C=C1[C@@]2(CCC(=O)OC2(C)C)C[C@H](OC(=O)c2ccccc2)[C@@]2(C)[C@@]34C(=O)O[C@@H](C)[C@@]35O[C@@]12[C@@H](OC(C)=O)[C@](C)(OC5=O)C4=O	1370 nM
C=C1C23O[C@@]45C(=O)O[C@](C)(C(=C)[C@@]4(C(=O)O[C@H]5C)[C@]2(C)[C@@H](OC(=O)c2ccccc2)C[C@]12CCC(=O)OC2(C)C)[C@@H]3OC(C)=O	1370 nM
C=C1[C@@]2(CCC(=O)OC2(C)C)CC[C@@]2(C)[C@]34C(=C)[C@@]5(C)OC(=O)[C@@]3(O[C@@]12[C@H]5O)[C@H](C)OC4=O	1370 nM
CCOC(=O)C1=C[C@@H](OC(CC)CC)[C@H](NC(C)=O)[C@@H](N)C1 [OSELTAMIVIR]	990 nM

system: MCF7; assay: Cytotoxicity against human MCF7 cells assessed as cell growth inhibition by MTT assay; format: functional, cell-based; details: not given

Structure (SMILES)	IC50
C=C[C@]1(C)C=C2C(=O)C(O)=C3C(C)(C)CCC[C@]3(C)[C@@]2(O)CC1	35.9 µM
C=C[C@@]1(C)CCC2=C([C@H]1O)[C@H](O)[C@]1(O)OC[C@@]23CCCC(C)(C)[C@@]31O	> 70 µM
C=C[C@]1(C)C=C2C(=O)C(O)=C3C(C)(C)[C@@H](O)CC[C@]3(C)[C@@]2(O)[C@H](O)C1	> 70 µM
C=C[C@]1(C)C=C2C(=O)C(O)=C3C(C)(C)[C@@H](O)CC[C@]3(C)[C@@]2(O)CC1	25.6 µM
C=C[C@@]1(C)CCC2=C([C@H](O)C(=O)[C@@]3(O)C(C)(C)CCC[C@]23C)[C@H]1O	> 70 µM

system: Panel NCI-60 (60 carcinoma cell lines); assay: Cytotoxicity against human Panel NCI-60 (60 carcinoma cell lines) assessed as cell growth inhibition; format: functional, cell-based; details: not given

Structure (SMILES)	IC50
C[C@H]1CC[C@@]23C1=C[C@@]1(C)CC[C@](C)(C[C@H](O)C(=O)[C@@](C)(O)CO)[C@H]1[C@@H]2CC[C@@H]3C	18 µM
C[C@H]1CC[C@@]23C1=C[C@@]1(C)CC[C@](C)(C[C@H](O)[C@H](O)C(C)(C)O)[C@H]1[C@@H]2CC[C@@H]3C	18 µM
C[C@H]1C[C@@H](O)[C@@]23C1=C[C@@]1(C)CC[C@](C)(C[C@H](O)[C@H](O)C(C)(C)O)[C@H]1[C@@H]2CC[C@@H]3C	18 µM
C[C@H]1CC[C@@]23C1=C[C@@]1(C)CC[C@](C)(C[C@H](O)[C@H](O)C4(C)CO4)[C@H]1[C@@H]2CC[C@@H]3C (some centres undefined)	18 µM
C[C@H]1CC[C@@]23C1=C[C@@]1(C)CC[C@](C)(C[C@H](O)[C@H](O)[C@@](C)(O)CO)[C@H]1[C@@H]2CC[C@@H]3C	18 µM
C[C@H]1C[C@@H](O)[C@@]23C1=C[C@@]1(C)CC[C@](C)(C[C@H](O)[C@H](O)[C@@](C)(O)CO)[C@H]1[C@@H]2CC[C@@H]3C	18 µM
C[C@H]1CC[C@@]23C1=C[C@@]1(C)CC[C@](C)(C[C@H](O)[C@H](O)[C@@](C)(O)CO)[C@H]1[C@@H]2C[C@@H](O)[C@@H]3C	18 µM

target: T1, M-phase inducer phosphatase 2 (Homo sapiens, UniProt P30305); assay: Inhibition of recombinant human CDC25B expressed in Escherichia coli using pnitrophenyl phosphate as substrate preincubated for 15 mins followed by substrate addition measured after 60 mins by absorbance based assay; details: not given
T1 sequence (P30305 whole entry): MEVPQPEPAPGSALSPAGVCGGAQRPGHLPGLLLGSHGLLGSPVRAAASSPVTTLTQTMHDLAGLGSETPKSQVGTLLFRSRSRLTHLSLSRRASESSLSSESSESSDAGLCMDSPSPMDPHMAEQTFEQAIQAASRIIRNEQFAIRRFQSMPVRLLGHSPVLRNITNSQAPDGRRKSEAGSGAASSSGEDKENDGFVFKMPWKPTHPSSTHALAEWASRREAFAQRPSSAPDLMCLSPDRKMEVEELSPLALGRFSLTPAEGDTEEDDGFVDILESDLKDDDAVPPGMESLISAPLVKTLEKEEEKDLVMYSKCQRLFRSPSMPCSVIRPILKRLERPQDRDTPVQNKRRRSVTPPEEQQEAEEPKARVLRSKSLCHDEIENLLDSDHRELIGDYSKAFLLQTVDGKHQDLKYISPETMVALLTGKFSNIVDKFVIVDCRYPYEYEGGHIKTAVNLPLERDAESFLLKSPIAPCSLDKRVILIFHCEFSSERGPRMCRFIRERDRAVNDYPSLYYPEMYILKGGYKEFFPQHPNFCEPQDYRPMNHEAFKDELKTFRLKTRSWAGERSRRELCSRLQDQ

Structure (SMILES)	IC50
COC(=O)[C@]12[C@](C)(C(=O)[C@@]1(C)O)C(C)=C[C@H]1[C@]34CC[C@H](OC(C)=O)C(C)(C)[C@H]3[C@H](C[C@@]12C)OC4=O	18 µM
COC(=O)[C@@]12C(=O)[C@@](C)(O)[C@]1(C)C(C)=C[C@H]1[C@]34CC[C@H](OC(C)=O)C(C)(C)[C@H]3[C@H](C[C@@]12C)OC4=O	19 µM
COC(=O)[C@@]12C(=O)[C@](C)(O)C(=O)[C@@H](C(C)=C1C)C1[C@]2(C)C[C@@H]2OC(=O)[C@]13CC[C@H](OC(C)=O)C(C)(C)[C@@H]23 (some centres undefined)	20 µM
